Where “and” joins values, the source holds several entries; their conditions need not be identical. Equal values may be shown once.
What was measured:
[1] = system: rat isolated aortae; assay: In vitro vascular studies by wire myography; details: for Time-dependent relaxation of pre-contracted aorta: 2 h (120 min)
[2] = system: C57B1/6 ob/ob mouse; assay: Fed plasma cholesterol; type: in vivo; details: ob/ob mice, individual values
Experimental: Blood samples were also taken at −30 minutes for insulin analysis. • e) Blood Glucose analysis: Duplicate 20 μl samples of blood of were taken for each individual sample and placed in a 96-well assay plate. To each well was added 180 μl aliquots of glucose oxidase reagent. Samples were mixed and then left for approximately 30 minutes. Samples were then analysed automatically using a SpectraMax-250 and SoftMax Pro software. • f) Plasma preparation: Blood was collected for the measurement of i) plasma insulin, ii) cholesterol, iii) free fatty acids or iv) triglyceride concentration. • i. Plasma insulin analysis: Plasma insulin was measured using 5 μl of plasma, compared with a mouse insulin standard using a 96-well micro-assay plate • ii. Plasma cholesterol analysis: To each sample was added 200 μl of infinity cholesterol liquid stable reagent. The samples were mixed and incubated for 5 minutes before reading at dual wavelengths of 500 and 660 nm. • iii. Plasma free fatty acids: 5 μl samples of plasma were measured into a 96-well assay plate, to which was added 0.2 ml of reagents NEFA C • iv. Plasma triglycerides analysis: To each well 200 μl aliquots of triglycerides reagent. […] Comparison with a calibrated standard allowed identification of types of tissue by their density. Dedicated software was using to quantify amounts of bone and fat. The mice were lightly anaesthetised, sufficient to keep them quiescent during this non-invasive technique. • h) Energy expenditure measurements: Energy expenditure was measured by open circuit indirect calorimetry with mice in their home cages. For studies of 24 h energy expenditure, mice were dosed with their allocated treatment and then measurements commenced. […] Plasma leptin was measured in fed mice using the Crystal Chem Elisa assay. • j) Plasma adiponectin: Adiponectin exerts some of its weight reduction effects via the brain. […] Plasma adiponectin was measured in overnight fasted mice using the 96-well B-Bridge Elisa assay. • k) Plasma HDL-cholesterol: Plasma HDL-cholesterol was measured in fed mice using the kit from Trinity Biotech. • l) 24 h blood glucose profile: This was determined in order to ensure that changes in the diurnal control of blood glucose were detected. Thus blood samples were obtained at three hourly intervals throughout a continuous 24 h period. • m) Plasma haemoglobin AIC: Samples (10 μl) were analysed using the AIC. […] Morphology was assessed using hematoxylin and eosin staining. • p) Liver glycogen: After centrifugation (3000×g for 15 min), an aliquot of the supernatant (10 μl) is assayed using the glucose oxidase method. […] The residue is dissolved in 200 μl ethanol and triglyceride content measured. […]

[3] = system: C57B1/6 ob/ob mouse; assay: Thermic effect of a Complan meal: 3-hour energy expenditure; type: in vivo; parameters: unit not given here; details: ob/ob mice, day 17
[4] = 3.0 mg·kg−1 daily oral gavage (combination: both 3.0)

Row | Compound | Potency and maximal contractile response to re-introduction of calcium ([1]; calcium free, high potassium Krebs-Hensleit solution, CBD from 1 μM to 30 μM) | Vasorelaxant effect in arteries contracted with high potassium buffer ([1]; compared with control) | Vasorelaxant effect, tone induced with U46619 in calcium free buffer ([1]; compared with control) | Vasorelaxant effect in endothelium-denuded versus control aortae ([1]; rat aorta) | Time-dependent relaxation of pre-contracted aorta ([1]; rat aorta, 10 μM) | Residual relaxation (vasorelaxant effect minus effect of vehicle and time) ([1]; rat aorta, 10 μM, after 2 h) | Basal tension over time ([1]; rat aorta, 2 h) | Time-dependent vascular responses in the presence of AM251 ([1]; rat aorta, CB1 antagonist AM251 1 μM) | Residual vasorelaxant effects in the presence of SR144528 ([1]; rat aorta, CB2 antagonist SR144528 1 μM, between 45 min to 90 min) | Residual vasorelaxant effect in the presence of L-NAME ([1]; rat aorta, L-NAME 300 μM, versus control conditions) | Residual vasorelaxant effect in the presence of GW9662 ([1]; rat aorta, PPARγ antagonist GW9662 1 μM, after 1 h of incubation) | Vascular response over time after pre-treatment with PTX or capsaicin ([1]; rat arteries, PTX 200 ng ml−1, 2 h or capsaicin 10 μM, 1 h) | Fed plasma cholesterol day 28 [2, 4] | Fed plasma cholesterol day 28 ([2]; 3.0 mg·kg−1 daily oral gavage (combination: both 3.0), listed as Pure CBD) | Thermic effect of a meal: 3-hour energy expenditure per animal ([3]; 3.0 mg/kg daily oral gavage (combination: both 3.0 mg/kg), listed as pure CBD) | Time without effect on tone ([1]; pre-contracted aortae, 10 μM) | Fed plasma cholesterol day 28 ([2]; 0.3 mg·kg−1 daily oral gavage (combination: both 0.3)) | Thermic effect of a meal: 3-hour energy expenditure per animal ([3]; 0.3 mg/kg daily oral gavage (combination: both 0.3 mg/kg)) | Thermic effect of a meal: 3-hour energy expenditure per animal ([3]; 3.0 mg/kg daily oral gavage (combination: both 3.0 mg/kg)) | Thermic effect of a meal: 3-hour energy expenditure per animal ([3]; 3.0 mg/kg daily oral gavage (combination: both 3.0 mg/kg), listed as pure THCV)
1 | C=C(C)[C@@H]1CCC(C)=C[C@H]1c1c(O)cc(CCCCC)cc1O [CBD, cannabidiol] | significantly reduced in a concentration-dependent manner | no difference | significantly blunted | similar | 69.7±4.0 % relaxation | 50.1±3.3 % relaxation | -0.03 ± 0.01 g | did not significantly affect | significantly inhibited | not different | significantly reduced | no effect | reduced the total plasma cholesterol concentration and 3.64 and 4.22 and 3.77 and 5.02 and 2.90 and 5.38 and 3.50 | reduced the total plasma cholesterol | did not significantly increase energy expenditure | – | – | – | – | –
2 | CCCc1cc(O)c2c(c1)OC(C)(C)[C@@H]1CCC(C)=C[C@@H]21 [THCV, tetrahydrocannabivarin] | – | – | – | – | 28.7±4.6 % relaxation | – | – | – | – | – | – | – | 6.30 and 6.94 and 6.59 and 6.20 and 7.22 and 6.46 and 7.66 and 7.05 | – | – | > 105 min | 7.12 and 8.60 and 6.43 and 5.99 and 6.21 and 6.45 and 5.93 and 5.62 | 8.18 and 7.04 | 8.94 and 8.79 | significant effect
